# Data published in patent US9359196B2, “Antiproliferative compositions comprising curcumin analogs and methods of producing and using same” (The Board of Regents of the University of Oklahoma, priority 2009, dated 2016).
# Key:
# [1] = test system: PC-3 (prostate cancer) cells; assay: Cell proliferation study in PC-3 cells; assay type: cell-based
# Experimental: Cell Culture and drug treatment: Human lung adenocarcinoma cell line NCI-H441 (ATCC Number: HTB-174) was obtained from the American Type Culture Collection (Manassas, Va.). H441 cells were maintained at 37° C. with 5% CO2 in McCoy's 5A Medium (Invitrogen, Carlsbad, Calif.) supplemented with 5% heat-inactivated fetal bovine serum (FBS). All media contained gentamicin at 50 μg/ml (GIBCO Laboratories, Grand Island, N.Y.). Other cells lines (PANC-1, MiaPaCa-2 and PC-3) were also similarly maintained, except that the cell culture medium was RPMI 1640 instead of McCoy's.
# To evaluate the anti-proliferative activity of synthesized bis(2-fluorobenzylidene)-4-piperidone and its derivatives, the cells were seeded in 96-well flat-bottom tissue culture plates at a density of 10×10^3 cells per well. The cells were allowed to attach and grow overnight. The test compounds were solubilized in dimethyl sulfoxide (DMSO), filtered through 0.2 μm nylon filter and added to cells at 1, 10, 25 and 100 μM concentrations in culture medium supplemented with 5% FBS. […]
# Cell Proliferation: The total number of cells after the treatment period was estimated by the hexosaminidase assay. […] The absorbance was measured at 405 nm. […] The data were analyzed as percent of control, where the control wells were treated with equivalent amounts of DMSO alone, and the analyzed data was presented as average±standard error of mean. […]
# H441 cells [2] = assay: Monodansylcadaverine fluorescence microscopy of autophagosomes in H441 cells; assay type: cell-based, human
# Experimental: Monodansylcadaverine (MDC) is an autofluorescent marker for autophagic vacuoles. [Biederbick et al., 1995] It was found the emergence of intense MDC-fluorescence in the treated cells. The fluorescence vanished when the cells were treated with 3-methyl adenine (3-MA). […] [Seglen et al., 1982]
# [3] = Octanol-water partition coefficient (pre-formulation); assay type: physicochemical
# Source text: The pre-formulation studies on CLEFMA depicted it as a highly hydrophobic drug with octanol-water partition coefficient of 5.66. It was hypothesized that liposomes might serve as a vehicle for CLEFMA preparation meant for parenteral administration. Parenteral liposome formulations of lipophilic drugs are challenging. Incorporation of a lipid-partitioning drug in liposomes may produce structurally instable liposomes, resulting in burst-release of drug, rapid clearance from the body, and/or overall poor efficacy. The entrapment of cyclodextrin (CD)-based inclusion complexes (IC) inside the liposomes can be a reliable and effective method of encapsulation of hydrophobic drugs. This strategy was first reported by Gregoriades [McCormack et al., 1994], and has recently been used for the encapsulation of isotretinoin [Kaur et al., 2010].
# H441 cells [4] = assay: Reactive oxygen species assay (DCFH-DA) in H441 cells; assay type: cell-based, human; settings: 24 and 48 h
# Experimental: (§1) Reactive oxygen species (ROS) assay: The CLEFMA-induced generation of ROS in H441 and CCL-151 cells was measured using the OxiSelect assay kit (Cell Biolabs, Inc., San Diego, Calif.). Briefly, the cells were cultured in 96-well plates, and the cell-permeable fluorogenic probe 2′,7′-dichlorodihydrofluorescin diacetate (DCFH-DA) was added to the wells and the plate was incubated for 30-60 min. The wells were washed thrice with PBS and treated with CLEFMA in culture medium for 24 and 48 h. After the incubation period, the medium was removed and the cells were gently washed 2-3 times with PBS, and the fluorescence, indicating ROS activity, was measured at 480 nm/530 nm (excitation/emission wavelengths) using the Cytoflour 2300 (Millipore, Billerica, Mass.).
# [5] = test system: CCL-151 normal lung fibroblasts; assay: Reactive oxygen species assay (DCFH-DA) in CCL-151 normal lung fibroblasts; assay type: cell-based
# Experimental: as §1
# H441 cells [6] = assay: MitoSOX Red mitochondrial superoxide imaging / flow cytometry; assay type: cell-based, human; settings: 0-20 μM, 12-48 h
# Experimental: MitoSOX Red mitochondrial superoxide imaging: Cells were grown to 70% confluency in 24-well tissue culture plates and treated with CLEFMA (0-20 μM) for 12-48 h; treatment with hydrogen peroxide (H2O2, 10 μM) served as a positive control. At the end of the incubation period, both the non-adherent and adherent cells were incubated with 5 μM MitoSOX Red solution (Invitrogen, Carlsbad, Calif.) for 30 min at 37° C. For flow cytometric analysis, the MitoSOX-loaded cells were trypsinized and collected in HBSS (with Ca/Mg) containing 1% BSA and suspended at a density of 1−2×10^7 cells/ml. Approximately 5-10 million cells were aliquoted into a binding buffer and run through an automated dual-laser-excited FACS Calibur (Flow and Imaging Core Facility, OUHSC, Oklahoma City) measuring at 488 nm excitation wavelength. The data were collected at the FSC, FL2 and FL3 channels for at least 10,000 events, and the histogram and dot-plot charts were obtained and analyzed using Summit V4.3 software (Dako Colorado Inc, Carpinteria, Calif.). For microscopy, the MitoSOX-loaded cells were counterstained with 1 μg/ml Hoechst 33342 dye (Molecular Probes, Carlsbad, Calif.). […]
structure (smiles),measurement,setting,value
"O=C(O)C=CC(=O)N1CC(=Cc2ccccc2Cl)C(=O)C(=Cc2ccccc2Cl)C1 [Compound 29, 4-[3,5-Bis-(2-chlorobenzylidene)-4-oxo-piperidin-1-yl]-4-oxo-2-butenoic acid]",potency of antiproliferative action,[1],enhanced the potency of antiproliferative action
same,autophagosome formation (MDC fluorescence),H441 cells [2],appearance of intracellular vacuoles or autophagosomes
same,octanol-water partition coefficient,[3],5.66
same,ROS generation,H441 cells [4],generated ROS in a dose- and time-dependent fashion
same,ROS production,[5],did not increase ROS production in normal lung fibroblasts
same,mitochondrial ROS production (MitoSOX),H441 cells [6],time- and dose dependent increase in mitochondrial ROS production
